Data set [1] in a line: Drug uptake in human THP-1 cells assessed as increase in fluorescence intensity at 10 umol/L incubated for 2 hrs by cell imaging based fluorescence microscopic analysis. It is filed as ADME. The following applies: thp-1, 2 h, 10 µM, dose 10 µmol/L.
The nature of data set [2]: Stability of the compound in fetal bovine serum assessed as parent compound remaining measured after 8 hrs by HPLC-MS analysis. It is filed as ADME, cell-free, Bos taurus. As to conditions: cattle, read-out: Stability.
The nature of data set [3]: Stability of the compound in fetal bovine serum assessed as parent compound remaining measured after 12 hrs by HPLC-MS analysis. It is filed as ADME, cell-free, Bos taurus. As to conditions: cattle, read-out: Stability.
Data set [4] can be described thus: Stability of the compound in fetal bovine serum assessed as parent compound remaining measured after 36 hrs by HPLC-MS analysis. The following applies: cattle, read-out: Stability. It is filed as ADME, cell-free, Bos taurus.
Data set [5] is described as follows: Cytotoxicity against human K562 cells assessed as cell viability at 0.01 to 100 uM incubated for 48 hrs by MTT assay. It is filed as toxicity, cell-based. As to conditions: dose 0.01-100 µM, read-out: Activity.
Data set [6] in a line: Cytotoxicity against human KU812 cells assessed as cell viability at 0.01 to 100 uM incubated for 48 hrs by MTT assay. As to conditions: dose 0.01-100 µM, read-out: Activity. It is filed as toxicity, cell-based.
Data set [7] can be described thus: Cytotoxicity against human CCRF-CEM cells assessed as cell viability at 0.01 to 100 uM incubated for 48 hrs by MTT assay. It is filed as toxicity, cell-based. The following applies: dose 0.01-100 µM, read-out: Activity.
The nature of data set [8]: Cytotoxicity against human THP-1 cells assessed as reduction in cell viability at higher concentrations incubated for 48 hrs by MTT assay. It is filed as toxicity, cell-based. The following applies: read-out: INH.
Data set [9] can be described thus: Increase in membrane permeability of IMA-PROTAC in human K562 cells assessed as potentiation of IMA-PROTAC-induced Bcr-Abl degradation at PROTAC to compound concentration ratio of 1:5 incubated for 48 hrs in presence of 3 umol/L IMA-PROTAC by western blot analysis (reference value: 40%). It is filed as functional.
For data set [10], the system named is K562. The data set can be described thus: Increase in membrane permeability of IMA-PROTAC in human K562 cells assessed as potentiation of IMA-PROTAC-induced Bcr-Abl degradation at PROTAC to compound concentration ratio of 1:3 incubated for 48 hrs in presence of 3 umol/L IMA-PROTAC by western blot analysis. It is filed as functional, cell-based.
Data set [11] concerns K562. In words: Induction of apoptosis in human K562 cells assessed as viable cells at PROTAC to compound concentration ratio of 1:5 incubated for 48 hrs in presence of 3 umol/L IMA-PROTAC by AnnexinV-FITC/PI staining based flow cytometry (reference value: 99.85%). It is filed as functional.
In data set [12] the test system is K562. In words: Induction of apoptosis in human K562 cells assessed as early apoptotic cells at PROTAC to compound concentration ratio of 1:5 incubated for 48 hrs in presence of 3 umol/L IMA-PROTAC by AnnexinV-FITC/PI staining based flow cytometry (reference value: 0.03%). It is filed as functional.
In data set [13] the test system is K562. In words: Induction of apoptosis in human K562 cells assessed as late apoptotic cells at PROTAC to compound concentration ratio of 1:5 incubated for 48 hrs in presence of 3 umol/L IMA-PROTAC by AnnexinV-FITC/PI staining based flow cytometry (reference value: 0.01%). It is filed as functional.
The subject of data set [14] is K562. The data set can be described thus: Induction of apoptosis in human K562 cells assessed as necrotic cells at PROTAC to compound concentration ratio of 1:5 incubated for 48 hrs in presence of 3 umol/L IMA-PROTAC by AnnexinV-FITC/PI staining based flow cytometry (reference value: 0.1%). It is filed as functional.
A short description of data set [15]: Interaction with IMA-PROTAC assessed as induction of formation of micelle cluster with uniform and distinct spherical morphology by transmission electron microscopy. It is filed as physicochemical.
Data set [16] can be described thus: Interaction with IMA-PROTAC assessed as induction of assembly formation by transmission electron microscopy. It is filed as physicochemical.
In data set [17] the test system is K562. The data set can be described thus: Increase in membrane permeability of IMA-PROTAC in human K562 cells assessed as potentiation of IMA-PROTAC-induced inhibition of STAT5 phosphorylation at PROTAC to compound concentration ratio of 1:5 incubated for 48 hrs in presence of 3 umol/L IMA-PROTAC by western blot analysis. It is filed as functional, cell-based.

Data set [18] is described as follows: Drug uptake in human CCRF-CEM cells assessed as membrane penetration by measuring increase in fluorescence intensity at 5 umol/L incubated for 2 hrs by flow cytometry relative to C9C. It is filed as ADME, cell-based. The following applies: 5 µM, dose 5 µmol/L.
Data set [19] is described as follows: Drug uptake in human CCRF-CEM cells assessed as increase in fluorescence intensity at 1 to 10 uM incubated for 2 hrs by flow cytometry. It is filed as ADME, cell-based. As to conditions: dose 1-10 µM.
The nature of data set [20]: Drug uptake in human CCRF-CEM cells assessed as increase in fluorescence intensity at 5 umol/L measured for 60 to 240 mins by flow cytometry. As to conditions: 5 µM, TDE = time-dependent effect, time 60-240 min, dose 5 µmol/L. It is filed as ADME, cell-based.
Data set [21] is described as follows: Drug uptake in human CCRF-CEM cells assessed as increase in fluorescence intensity at 1 to 10 umol/L incubated for 2 hrs by cell imaging based fluorescence microscopic analysis. It is filed as ADME. The following applies: dose 1-10 µmol/L.
A short description of data set [22]: Drug uptake in human K562 cells assessed as perinuclear distribution and colocalization with nucleus at 10 umol/L incubated for 2 hrs by confocal laser microscopy. It is filed as ADME, cell-based. As to conditions: k562, 2 h, 10 µM, dose 10 µmol/L.
Data set [23] can be described thus: Drug uptake in human KU812 cells assessed as perinuclear distribution and colocalization with nucleus at 10 umol/L incubated for 2 hrs by confocal laser microscopy. It is filed as ADME, cell-based. As to conditions: ku812, 2 h, 10 µM, dose 10 µmol/L.
Data set [24] in a line: Drug uptake in human CCRF-CEM cells assessed as perinuclear distribution and colocalization with nucleus at 10 umol/L incubated for 2 hrs by confocal laser microscopy. It is filed as ADME, cell-based. As to conditions: 10 µM, dose 10 µmol/L.
Data set [25] in a line: Drug uptake in human CCRF-CEM cells assessed as increase in fluorescence intensity at 5 umol/L measured for 5 to 60 mins by flow cytometry. It is filed as ADME, cell-based. As to conditions: 5 µM, time 5-60 min, dose 5 µmol/L.

2 molecules from ChEMBL document CHEMBL6071133, “Discovery of novel penetrating peptides able to target human leukemia and lymphoma for enhanced PROTAC delivery” (Eur J Med Chem, 2024) can be followed below.

Calls of active or inactive are those of the source. The rule behind the calls is not given here. Peptide text beside a SMILES is read from it.

`CC(C)C[C@H](NC(=O)[C@H](Cc1c[nH]c2ccccc12)NC(=O)[C@H](Cc1ccc(O)cc1)NC(=O)[C@H](Cc1ccccc1)NC(=O)CNC(=O)[C@@H](N)CS)C(=O)N[C@@H](CCCNC(=N)N)C(=O)N[C@@H](CO)C(=O)N[C@@H](CS)C(=O)O` (H-CGFYWLRSC-OH): the Drug uptake entry in data set [1] is given as “Active”. The remaining at 8 h in data set [2] came out at 100%. Also, the remaining at 12 h in [3] was 80%. For the same molecule, the remaining at 36 h in data set [4] turned out to be 35%. The viability at 48 h, up to 100 µM in [5], in data set [6] and in [7] was > 75% each time. Also, in data set [8], the cytotoxicity at 48 h was ~50%. The Activity in data set [9] is 60%; with K562 [11] it was 86.18%; with K562 [12], 6.26%; in the data set on K562 [13], 7.46%; with K562 [14] it was 0.09%; in [15] it was “Not Active”. In [16], the Activity entry is “Not Active”. Moreover, the result in the data set with K562 [10] and in the data set with K562 [17] was Active.

Regarding `CC(C)C[C@@H]1NC(=O)[C@H](Cc2csc3ccccc23)NC(=O)[C@@H](Cc2ccccc2)NC(=O)[C@H](Cc2ccccc2)NC(=O)[C@H](CCCNC(=N)N)NC(=O)[C@H](CCCCN)NC(=O)[C@H](CCC(=O)O)NC(=O)[C@H](CO)NC(=O)[C@H](CCCNC(=N)N)NC1=O`, in [18], the “fold change (FC)” value is 2.97. Further, the Drug uptake result in data set [19] is given as “Dose-Dependent Effect”; in data set [20] it was “Tde”; in [21], “Active”; in data set [1], “Active”; in [22] it was “Active”; in data set [23] it was “Active”. Further, the Drug uptake result in data set [24] and in [25] was “Active” throughout.
